Measured values published in patent publication US5200409A, “Composition and use of substituted 1,3-dithiolo-and 1,4-dithiinoquinoxalines as an antimicrobial” (The Dow Chemical Company, priority 1992, dated 1993).
Converted amounts (≈) assume the structure as drawn. Like-named read-outs stand apart in the source and are kept apart here.

Legend:
[1] = tested on: Enterobacter aerogenes (Ea); experiment: Minimum inhibitory concentration (MIC) in nutrient agar; format: cell-based, Enterobacter aerogenes ATCC 13048; settings: Klebsiella aerogenes
Experimental: (§1) The minimum inhibitory concentration (MIC) for the compounds listed in Table I is determined for 9 bacteria, using nutrient agar: and 7 yeast and fungi, using malt yeast agar. A one percent solution of the test compound is prepared in a mixture of acetone and water. Nutrient agar is prepared at pH 6.8, representing a neutral medium, and at pH 8.2, representing an alkaline medium. The nutrient agars are prepared by adding 23 g of nutrient agar to one-liter of deionized water. In addition, the alkaline medium is prepared by adjusting a 0.04M solution of N-[tris-(hydroxymethyl)methyl]-glycine buffered deionized water with concentrated sodium hydroxide to a pH of […]. Malt yeast agar is prepared by adding 3 g yeast extract and 45 g malt agar per liter of deionized water. The specific agar is dispensed in 30 ml aliquots into 25×200 mm test tubes, capped and autoclaved for 15 minutes at 115° C. The test tubes containing the agar are cooled in a water bath until the temperature of the agar is 48° C. Then, an appropriate amount of the one percent solution of the test compound is added (except in the controls where no compound is added) to the respective test tubes so that the final concentrations are 500, 250, 100, 50, 25, 10, 5, 2.5, 1.0 and zero parts per million of the test compound in the agar, thus having a known concentration of test compound dispersed therein. The contents of the test tubes are then transferred to respective petri plates. After drying for 24 hours, the petri plates containing nutrient agar are inoculated with bacteria and those containing malt yeast agar are inoculated with yeast and fungi.
(§2) The inoculation with bacteria is accomplished by using the following procedure. Twenty-four hour-cultures of each of the bacteria are prepared by incubating the respective bacteria in tubes containing nutrient broth for 24 hours at 30° C. in a shaker. Dilutions of each of the 24 hour-cultures are made so that nine separate suspensions (one for each of the nine test bacteria) are made, each containing 10^8 colony forming units (CFU) per ml of suspension of a particular bacteria. Aliquots of 0.3 ml of each of the bacterial suspensions are used to fill the individual wells of Steer's Replicator. For each microbial suspension, 0.3 ml was used to fill three wells (i.e., three wells of 0.3 ml each) so that for the nine different bacteria, 27 wells are filled. The Steer's Replicator is then used to inoculate both the neutral and alkaline pH nutrient agar petri plates.
(§3) The inoculated petri plates are incubated at 30° C. for 48 hours and then read to determine if the test compound which is incorporated into the agar prevented growth of the respective bacteria.
(§4) Table II lists the bacteria, yeast and fungi used in the MIC test described above along with their respective American Type Culture Collection (ATCC) identification numbers.

[2] = tested on: Staphylococcus aureus (Sa); experiment: as above; format: cell-based, Staphylococcus aureus ATCC 6538
Experimental: as §1, §2, §3, §4

Trichoderma viride (Tv) = experiment: Minimum inhibitory concentration (MIC) in malt yeast agar; format: cell-based, Trichoderma viride ATCC 8678; settings: malt yeast agar; 30° C.; 72 hours for fungi; read-out: Minimum Inhibitory Concentration, Tv
Experimental: as §1
(§5) The inoculation with the yeast and fungi is accomplished as follows. Cultures of yeast and fungi are incubated for seven days on malt yeast agar at 30° C. These cultures are used to prepare suspensions by the following procedure. A suspension of each organism is prepared by adding 10 ml of sterile saline and 10 microliters of octylphenoxy polyethoxy ethanol to the agar slant of yeast or fungi. The sterile saline/octylphenoxy polyethoxy ethanol solution is then agitated with a sterile swab to suspend the microorganism grown on the slant. Each resulting suspension is diluted into sterile saline (1 part suspension: 9 parts sterile saline). Aliquots of these dilutions are placed in individual wells of Steer's Replicator and petri plates inoculated as previously described. The petri plates are incubated at 30° C. and read after 48 hours for yeast and 72 hours for fungi.
as §4

Fusarium oxysporum (Fo) = experiment: as above; format: cell-based, Fusarium oxysporum ATCC 48112; settings: malt yeast agar; 30° C.; 72 hours for fungi; read-out: Minimum Inhibitory Concentration, Fo
Experimental: as §1, §5, §4

Escherichia coli (Ec) = experiment: Minimum inhibitory concentration (MIC) in nutrient agar; format: cell-based, Escherichia coli ATCC 11229
Experimental: as §1, §2, §3, §4

[3] = tested on: Pseudomonas aeruginosa (Pa); experiment: as above; format: cell-based, Pseudomonas aeruginosa ATCC 10145; settings: 48 hours
Experimental: as §1, §2, §3, §4

Bacillus subtilis (Bs) = experiment: as above; format: cell-based, Bacillus subtilis ATCC 8473
Experimental: as §1, §2, §3, §4

[4] = tested on: Klebsiella pneumoniae (Kp); experiment: as above; format: cell-based, Klebsiella pneumoniae ATCC 8308
Experimental: as §1, §2, §3, §4

Candida albicans (Ca) = experiment: Minimum inhibitory concentration (MIC) in malt yeast agar; format: cell-based, Candida albicans ATCC 10231; settings: malt yeast agar; 30° C.; 48 hours for yeast; read-out: Minimum Inhibitory Concentration, Ca
Experimental: as §1, §5, §4

[5] = tested on: Salmonella choleraesuis (Sc); experiment: Minimum inhibitory concentration (MIC) in nutrient agar; format: cell-based, Salmonella choleraesuis ATCC 10708; settings: Salmonella enterica
Experimental: as §1, §2, §3, §4

[6] = tested on: Penicillium chrysogenum (Pc); experiment: Minimum inhibitory concentration (MIC) in malt yeast agar; format: cell-based, Penicillium chrysogenum ATCC 9480; settings: malt yeast agar; 30° C.; 72 hours for fungi; read-out: Minimum Inhibitory Concentration, Pc
Experimental: as §1, §5, §4

[7] = tested on: Aureobasidium pullulan (Ap); experiment: as above; format: cell-based, Aureobasidium pullulan ATCC 16622; settings: malt yeast agar; 30° C.; 48 hours for yeast and 72 hours for fungi; read-out: Minimum Inhibitory Concentration, Ap
Experimental: as §1, §5, §4

Aspergillus niger (An) = experiment: as above; format: cell-based, Aspergillus niger ATCC 16404; settings: malt yeast agar; 30° C.; 72 hours for fungi; read-out: Minimum Inhibitory Concentration, An
Experimental: as §1, §5, §4

Proteus vulgaris (Pv) = experiment: Minimum inhibitory concentration (MIC) in nutrient agar; format: cell-based, Proteus vulgaris ATCC 881
Experimental: as §1, §2, §3, §4

[8] = tested on: Pseudomonas aeruginosa (PRD-10); experiment: as above; format: cell-based, Pseudomonas aeruginosa ATCC 15442
Experimental: as §1, §2, §3, §4

[9] = tested on: Saccharomyces cerevisiae (Sc); experiment: Minimum inhibitory concentration (MIC) in malt yeast agar; format: cell-based, Saccharomyces cerevisiae ATCC 4105; settings: malt yeast agar, 30° C., 48 hours for yeast, read-out: Minimum Inhibitory Concentration, Sc
Experimental: as §1, §5, §4

[10] = 48 h, pH 8.2, read-out: Minimum Inhibitory Concentration, Ec
[11] = pH 6.8, nutrient agar, 30° C., 48 hours, read-out: Minimum Inhibitory Concentration, Kp

**Q.** Which results are given for Cc1cc2nc3c(nc2cc1[N+](=O)[O-])SC(C#N)=C(C#N)S3 [F, 7-nitro-8-methyl-1,4-dithiino-(2,3-b)-quinoxaline-2,3-dicarbonitrile]?
**A.** MIC ([1]; pH 6.8, nutrient agar, 30° C., 48 hours, read-out: Minimum Inhibitory Concentration, Ea): 500 µg/mL (≈ 1530 µM); MIC ([1]; pH 8.2, nutrient agar, 30° C., 48 hours, read-out: Minimum Inhibitory Concentration, Ea): > 500 µg/mL; MIC ([2]; 48 h, pH 6.8, read-out: Minimum Inhibitory Concentration, Sa): < 10 µg/mL; MIC ([2]; pH 8.2, nutrient agar, 30° C., 48 hours, read-out: Minimum Inhibitory Concentration, Sa): 50 µg/mL (≈ 153 µM); MIC (Trichoderma viride (Tv)): 25 µg/mL (≈ 76.4 µM); MIC (Fusarium oxysporum (Fo)): < 10 µg/mL; MIC (Escherichia coli (Ec); [10]): > 500 µg/mL; MIC (Escherichia coli (Ec); pH 6.8, nutrient agar, 30° C., 48 hours, read-out: Minimum Inhibitory Concentration, Ec): 250 µg/mL (≈ 764 µM); MIC ([3]; pH 6.8, 30° C.): 500 µg/mL (≈ 1530 µM); MIC ([3]; pH 8.2, 30° C.): > 500 µg/mL; MIC (Bacillus subtilis (Bs); pH 6.8, nutrient agar, 30° C., 48 hours, read-out: Minimum Inhibitory Concentration, Bs): < 10 µg/mL; MIC (Bacillus subtilis (Bs); pH 8.2, nutrient agar, 30° C., 48 hours, read-out: Minimum Inhibitory Concentration, Bs): 50 µg/mL (≈ 153 µM); MIC [4, 11]: 100 µg/mL (≈ 305 µM); MIC ([4]; pH 8.2, nutrient agar, 30° C., 48 hours, read-out: Minimum Inhibitory Concentration, Kp): > 500 µg/mL; MIC (Candida albicans (Ca)): < 10 µg/mL; MIC ([5]; pH 6.8, nutrient agar, 30° C., 48 hours, read-out: Minimum Inhibitory Concentration, Sc): 250 µg/mL (≈ 764 µM); MIC ([5]; pH 8.2, nutrient agar, 30° C., 48 hours, read-out: Minimum Inhibitory Concentration, Sc): > 500 µg/mL; MIC [6]: < 10 µg/mL; MIC [7]: < 10 µg/mL; MIC (Aspergillus niger (An)): < 10 µg/mL; MIC (Proteus vulgaris (Pv); pH 6.8, nutrient agar, 30° C., 48 hours, read-out: Minimum Inhibitory Concentration, Pv): 50 µg/mL (≈ 153 µM); MIC (Proteus vulgaris (Pv); pH 8.2, nutrient agar, 30° C., 48 hours, read-out: Minimum Inhibitory Concentration, Pv): > 500 µg/mL; MIC ([8]; pH 6.8, nutrient agar, 30° C., 48 hours, read-out: Minimum Inhibitory Concentration, PRD): > 500 µg/mL; MIC ([8]; pH 8.2, nutrient agar, 30° C., 48 hours, read-out: Minimum Inhibitory Concentration, PRD): > 500 µg/mL; MIC [9]: < 10 µg/mL

**Q.** Which results are given for Cc1ccc2nc3c(nc2c1)SC(=C(C#N)C#N)S3 [N, 6-methyl-1,3-dithiolo-(4,5-b)-quinoxaline-2-ylidene-propanedinitrile]?
**A.** MIC ([1]; 48 h, pH 6.8, read-out: Minimum Inhibitory Concentration, Ea): > 500 µg/mL; MIC ([1]; 48 h, pH 8.2, read-out: Minimum Inhibitory Concentration, Ea): > 500 µg/mL; MIC ([2]; 48 h, pH 8.2, read-out: Minimum Inhibitory Concentration, Sa): > 500 µg/mL; MIC ([2]; pH 6.8, nutrient agar, 30° C., 48 hours, read-out: Minimum Inhibitory Concentration, Sa): > 500 µg/mL; MIC (Trichoderma viride (Tv)): > 500 µg/mL; MIC (Fusarium oxysporum (Fo)): > 500 µg/mL; MIC (Escherichia coli (Ec); 48 h, pH 6.8, read-out: Minimum Inhibitory Concentration, Ec): > 500 µg/mL; MIC (Escherichia coli (Ec); [10]): > 500 µg/mL; MIC ([3]; pH 6.8, 30° C.): > 500 µg/mL; MIC ([3]; pH 8.2, 30° C.): > 500 µg/mL; MIC (Bacillus subtilis (Bs); 48 h, pH 6.8, read-out: Minimum Inhibitory Concentration, Bs): > 500 µg/mL; MIC (Bacillus subtilis (Bs); 48 h, pH 8.2, read-out: Minimum Inhibitory Concentration, Bs): > 500 µg/mL; MIC ([4]; 48 h, pH 8.2, read-out: Minimum Inhibitory Concentration, Kp): > 500 µg/mL; MIC [4, 11]: > 500 µg/mL; MIC (Candida albicans (Ca)): > 500 µg/mL; MIC ([5]; 48 h, pH 6.8, read-out: Minimum Inhibitory Concentration, Sc): 500 µg/mL (≈ 1770 µM); MIC ([5]; 48 h, pH 8.2, read-out: Minimum Inhibitory Concentration, Sc): > 500 µg/mL; MIC [6]: 500 µg/mL (≈ 1770 µM); MIC [7]: 500 µg/mL (≈ 1770 µM); MIC (Aspergillus niger (An)): 500 µg/mL (≈ 1770 µM); MIC (Proteus vulgaris (Pv); 48 h, pH 6.8, read-out: Minimum Inhibitory Concentration, Pv): > 500 µg/mL; MIC (Proteus vulgaris (Pv); 48 h, pH 8.2, read-out: Minimum Inhibitory Concentration, Pv): > 500 µg/mL; MIC ([8]; 48 h, pH 6.8, read-out: Minimum Inhibitory Concentration, PRD): > 500 µg/mL; MIC ([8]; 48 h, pH 8.2, read-out: Minimum Inhibitory Concentration, PRD): > 500 µg/mL; MIC [9]: > 500 µg/mL
